Data as given in patent US8389509B2, “Substituted pyrazole compounds” (Bristol-Myers Squibb Company, priority 2009, dated 2013).

How the values were obtained:
[1] = tested on: circulating lymphocytes; experiment: Blood Lymphocyte Reduction Assay (BLR) in mice; type: in vivo, BALB/c mice; settings: oral
Procedure: (§1) Blood Lymphocyte Reduction Assay (BLR) in Rodents
(§2) Lewis rats or BALB/c mice were dosed orally with test article (as a solution or suspension in the vehicle) or vehicle alone (polyethylene glycol 300, “PEG300”). Blood was drawn at 4 hr and 24 h by retro-orbital bleeding. Blood lymphocyte counts were determined on an ADVIA 120 Hematology Analyzer (Siemens Healthcare Diagnostics). The results were measured as a reduction in the percentage of circulating lymphocytes as compared to the vehicle treated group at the 4 hr and 24 hr measurement. The results represent the average results of all animals within each treatment group (n=3-4).
(§3) Compounds of the present invention were tested in the Blood Lymphocyte Reduction assay (BLR) described hereinabove and the results are shown in Table D for rats and Table E for mice.

[2] = tested on: C57BL/6 mice; experiment: Mouse Experimental Autoimmune Encephalomyelitis Assay (EAE); type: in vivo; settings: for Clinical Score on Day 24, Mean: vehicle mean 2.63
Procedure: Mouse Experimental Autoimmune Encephalomyelitis Assay (EAE)
Mice (C57BL/6 female, 6-8 weeks of age, Charles River, n=10-12 treatment group) were immunized subcutaneously with 150 μg MOG35-55 emulsified 1:1 with […] Freund's adjuvant (sigma) supplemented with 150 μg Mycobacterium tuberculosis H37RA (Difco Laboratories). 400 ng of pertussis toxin (CalBiochem) was injected intraperitoneally on the day of immunization and two days later. Animals were dosed once daily with the test article (as a solution or suspension in the vehicle) or vehicle alone (polyethylene glycol 300, “PEG300”) starting from 1 day after immunization. Clinical scoring and body weight were taken 3 times per week until the end of the study on day 24. Clinical scoring system: 0.5: partial tail weakness; 1: limp tail or waddling gait with tail tonicity; 1.5: waddling gait with partial tail weakness; 2: waddling gait with limp tail (ataxia); 2.5: ataxia with partial limb paralysis; 3: full paralysis of one limb; 3.5: full paralysis of one limbs with partial paralysis of a second limb; 4: full paralysis of two limbs; 4.5: moribund; 5: death. A compound of the present invention was tested in the Mouse Experimental Autoimmune Encephalomyelitis assay described hereinabove and the results are shown in Table H.

[3] = molecular target: T1, S1P1 (Homo sapiens, UniProt P21453); experiment: Method A: Receptor [35S] GTPγS Binding Assay, S1P1; type: biochemical
T1 construct: expressed in transfected cells; host or cells: CHO cells
T1 sequence (P21453 whole entry): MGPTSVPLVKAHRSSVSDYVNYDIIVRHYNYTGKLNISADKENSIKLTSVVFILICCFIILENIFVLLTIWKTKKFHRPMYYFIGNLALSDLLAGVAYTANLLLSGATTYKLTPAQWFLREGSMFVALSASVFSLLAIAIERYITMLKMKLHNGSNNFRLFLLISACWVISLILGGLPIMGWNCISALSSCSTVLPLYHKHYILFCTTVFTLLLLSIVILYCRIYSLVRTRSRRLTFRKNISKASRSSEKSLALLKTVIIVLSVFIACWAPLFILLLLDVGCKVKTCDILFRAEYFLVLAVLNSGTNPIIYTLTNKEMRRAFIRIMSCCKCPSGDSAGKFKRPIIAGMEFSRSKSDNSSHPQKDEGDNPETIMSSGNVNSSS
Procedure: Method A: Receptor [35S] GTPγS Binding Assays
Compounds were loaded in a 384 FALCON® v-bottom plate (0.5 μl/well in a 3-fold dilution). Membranes prepared from S1P1/CHO cells or EDG3-Gal5-bla HEK293T cells were added to the compound plate (40 μl/well, final protein 3 μg/well) with MULTIDROP®. [^35S]GTP (1250 Ci/mmol, Perkin Elmer) was diluted in assay buffer: 20 mM HEPES, pH7.5, 10 mM MgCl2, 150 mM NaCl, 1 mM EGTA, 1 mM DTT, 10 μM GDP, 0.1% fatty acid free BSA, and 10 μg/ml Saponin to 0.4 nM. 40 μl of the [^35S] GTP solution was added to the compound plate with a final concentration of 0.2 nM. The reaction was kept at room temperature for 45 min. At the end of incubation, all the mixtures in the compound plate were transferred to a 384 well FB filter plates via GPCR robot system. The filter plate was washed with water 4 times by using the modified manifold Embla plate washer and dried at 60° C. for 45 min. 30 μA of MicroScint 20 scintillation fluid was added to each well for counting at Packard TOPCOUNT®. EC50 is defined as the agonist concentration that corresponds to 50% of the Ymax (maximal response) obtained for each individual compound tested.
Compounds of the present invention and Comparative Compound A were tested in the Receptor [^35S] GTPγS Binding Assays (Method A) and Receptor [^35S] In some instances, the value is an average of multiple experiments where N is the number of experiments conducted that provided satisfactory dose response curves. When more than one batch of an example was tested, the value presented is from a batch which allowed a comparison of GTPγS S1P1 and GTPγS S1P3 in which the most number of experiments were performed. Preferably, the same batch was examined in Method A and Method B. Data was not averaged across different batches of an example compound.

[4] = tested on: circulating lymphocytes; experiment: Blood Lymphocyte Reduction Assay (BLR) in rats; type: in vivo, Lewis rats; settings: oral
Procedure: as §1, §2, §3

In the case of `O=C(O)C1CN(Cc2ccc(-c3noc(-c4cnn(-c5ccccn5)c4C(F)(F)F)n3)cc2)C1` [Example 1, 1-(4-(5-(1-(Pyridin-2-yl)-5-(trifluoromethyl)-1H-pyrazol-4-yl)-1,2,4-oxadiazol-3-yl)benzyl)azetidine-3-carboxylic acid], the “% reduction in lymphocytes at 4 hr.” value ([1]; 0.3 mg/kg) is reported as 74%, the “% reduction in lymphocytes at 24 hr.” value ([1]; 0.3 mg/kg) is reported as 30% and the “% reduction in lymphocytes at 4 hr.” value ([1]; 1.0 mg/kg) is reported as 85%. For the same compound, the “% reduction in lymphocytes at 24 hr.” value ([1]; 1.0 mg/kg) was 68%, the “% reduction in lymphocytes at 4 hr.” value ([1]; 3.0 mg/kg) was 85% and the “% reduction in lymphocytes at 24 hr.” value ([1]; 3.0 mg/kg) was 76%. For the same compound, the “% reduction in lymphocytes at 4 hr.” value ([1]; 10.0 mg/kg) was 84%, the “% reduction in lymphocytes at 24 hr.” value ([1]; 10.0 mg/kg) was 88% and the “Clinical Score on Day 24, Mean” value ([2]; 1.0 mg/kg once daily) was 0.32. For the same compound, the “Clinical Score on Day 24, Mean” value ([2]; 3.0 mg/kg once daily) was 0.77, the “Clinical Score on Day 24, Mean” value ([2]; 10.0 mg/kg once daily) was 0.30 and the “disease progression as determined by the clinical scores” value ([2]; C57Bl/6 mice, prophylactic oral dosing) was “inhibits disease progression”. The EC50 ([3]; Method A, S1P1/CHO cell membranes) was 2.9 nM, the “GTPγS S1P3/S1P1 (Method A)” value ([3]; ratio of S1P3 EC50 to S1P1 EC50, Method A) was 2,300 and the “% reduction in lymphocytes at 4 hr.” value ([4]; 0.04 mg/kg) was 49%. The “% reduction in lymphocytes at 24 hr.” value ([4]; 0.04 mg/kg) was 6%, the “% reduction in lymphocytes at 4 hr.” value ([4]; 0.2 mg/kg) was 77% and the “% reduction in lymphocytes at 24 hr.” value ([4]; 0.2 mg/kg) was 15%. The “% reduction in lymphocytes at 4 hr.” value ([4]; 1.0 mg/kg) was 86%, the “% reduction in lymphocytes at 24 hr.” value ([4]; 1.0 mg/kg) was 61% and the “% reduction in lymphocytes at 4 hr.” value ([4]; 3.0 mg/kg) was 81%. For the same compound, the “% reduction in lymphocytes at 24 hr.” value ([4]; 3.0 mg/kg) was 75%.
